Holding throughout (assay type): in vivo
Assay [1] deals with Myzus persicae (Green Peach Aphid). Description: Example B5: Activity against Myzus persicae, sprayed sunflower leaf discs. The note with it: foliar, 144 h, application rate 200 ppm, mixed-age aphids on sunflower leaf discs, 6 days after infestation. As for the experimental part:
Sunflower leaf discs were placed on agar in a 24-well microtiter plate and sprayed with aqueous test solutions prepared from 10′000 ppm DMSO stock solutions. After drying, the leaf discs were infested with an aphid population of mixed ages. The samples were assessed for mortality 6 days after infestation.

Assay [2] has as its system Euschistus heros (Neotropical Brown Stink Bug). Description: Example B9: Activity against Euschistus heros, sprayed soybean leaf. Particulars: 120 h, application rate 200 ppm, N2 nymphs on soybean leaf, 5 days after infestation, read-out: effect in at least one of the two categories (mortality or growth inhibition). As to the method:
Soybean leaf on agar in 24-well microtiter plates were sprayed with aqueous test solutions prepared from 10′000 ppm DMSO stock solutions. After drying the leaf were infested with N2 nymphs. The samples were assessed for mortality and growth inhibition in comparison to untreated samples 5 days after infestation.

Assay [3] relates to Myzus persicae (Green Peach Aphid). Nature of the assay: Example B6: Activity against Myzus persicae, systemic via roots of pea seedlings. Particulars: 144 h, test rate 24 ppm, pea seedling roots in test solution, 6 days. As to the method: Roots of pea seedlings infested with an aphid population of mixed ages were placed directly in the aqueous test solutions prepared from 10′000 DMSO stock solutions. The samples were assessed for mortality 6 days after placing seedlings in test solutions.

Assay [4] concerns Frankliniella occidentalis (Western Flower Thrips). Nature of the assay: Example B8: Activity against Frankliniella occidentalis, sprayed sunflower leaf discs. Particulars: foliar, 168 h, application rate 200 ppm, mixed ages on sunflower leaf discs, 7 days after infestation. As for the experimental part: Sunflower leaf discs were placed on agar in 24-well microtiter plates and sprayed with aqueous test solutions prepared from […] stock solutions. After drying the leaf discs were infested with a Frankliniella population of mixed ages. The samples were assessed for mortality 7 days after infestation.

Assay [5] has as its system Diabrotica balteata (Corn Root Worm). Nature of the assay: Example B4: Activity against Diabrotica balteata, sprayed maize sprouts. The note with it: 96 h, application rate 200 ppm, L2 larvae on maize sprouts, 4 days after infestation, read-out: effect in at least one of the two categories (mortality or growth inhibition). As for the experimental part: Maize sprouts placed onto an agar layer in 24-well microtiter plates were treated with aqueous test solutions prepared from 10′000 ppm DMSO stock solutions by spraying. After drying, the plates were infested with L2 larvae (6 to 10 per well). The samples were assessed for mortality and growth inhibition in comparison to untreated samples 4 days after infestation.

The subject of assay [6] is Spodoptera littoralis (Egyptian Cotton Leaf Worm). Nature of the assay: Example B1: Activity against Spodoptera littoralis, sprayed cotton leaf discs. The note with it: foliar, 72 h, application rate 200 ppm, L1 larvae on cotton leaf discs, 3 days after infestation, read-out: control (at least one of mortality, anti-feedant effect, growth inhibition). As for the experimental part: Cotton leaf discs were placed onto agar in 24-well microtiter plates and sprayed with aqueous test solutions prepared from 10′000 ppm DMSO stock solutions. After drying the leaf discs were infested with five L1 larvae. The samples were assessed for mortality, anti-feeding effect, and growth inhibition in comparison to untreated samples 3 days after infestation. Control of Spodoptera littoralis by a test sample is given when at least one of the categories mortality, anti-feedant effect, and growth inhibition is higher than the untreated sample.

Assay [7] relates to Plutella xylostella (Diamond Back Moth). Nature of the assay: Example B12: Activity against Plutella xylostella, artificial diet, eggs. Particulars: 192 h, application rate 200 ppm, eggs on artificial diet, 8 days after infestation, read-out: effect in at least one of the two categories (mortality or growth inhibition). As to the method:
24-well microtiter plates with artificial diet were treated with aqueous test solutions prepared from 10′000 ppm DMSO stock solutions by pipetting. After drying, Plutella eggs were pipetted through a plastic stencil onto a gel blotting paper and the plate was closed with it. The samples were assessed for mortality and growth inhibition in comparison to untreated samples 8 days after infestation.

For the compound `CCS(=O)(=O)c1cc2c(cc1-c1nc3cc(C(F)(F)F)ncc3n1C)n(C)c(=O)n2C` [Compound P9, 5-ethylsulfonyl-1,3-dimethyl-6-[3-methyl-6-(trifluoromethyl)imidazo[4,5-c]pyridin-2-yl]benzimidazol-2-one], the mortality at 200 ppm in assay [1] and in assay [4] was no less than 80% throughout. Also, in assay [2], the percent effect (mortality or growth inhibition) at 200 ppm is no less than 80%. The compound also showed a mortality at 24 ppm in assay [3] of no less than 80%.
With `CCSc1cc2c(cc1-c1nc3cc(C(F)(F)F)ncc3n1C)n(C)c(=O)n2C` [Compound P10, 5-ethylsulfanyl-1,3-dimethyl-6-[3-methyl-6-(trifluoromethyl)imidazo[4,5-c]pyridin-2-yl]benzimidazol-2-one], the percent effect (mortality or growth inhibition) at 200 ppm in assay [2] is no less than 80%.
`CCS(=O)(=O)c1cc2c(cc1-c1nc3cc(C(F)(F)F)nnc3n1C)n(C)c(=O)n2C` [Compound P11, 5-ethylsulfonyl-1,3-dimethyl-6-[7-methyl-3-(trifluoromethyl)imidazo[4,5-c]pyridazin-6-yl]benzimidazol-2-one] showed a mortality at 200 ppm in assay [1] of no less than 80%. Further, the percent effect (mortality or growth inhibition) at 200 ppm in assay [2] is no less than 80%. Moreover, the mortality at 24 ppm in assay [3] is no less than 80%.
With `CCS(=O)(=O)c1cc2c(cc1-c1nc3cc(C(F)(F)F)cnc3n1C)n(S(=O)(=O)C1CC1)c(=O)n2C` [Compound P13, 1-cyclopropylsulfonyl-5-ethylsulfonyl-3-methyl-6-[3-methyl-6-(trifluoromethyl)imidazo[4,5-b]pyridin-2-yl]benzimidazol-2-one], the mortality at 200 ppm in assay [1] is no less than 80%. For the same compound, the mortality at 24 ppm in assay [3] was no less than 80%.
`CCS(=O)(=O)c1cc2c(cc1-c1nc3cc(C(F)(F)F)cnc3n1C)n(CSC)c(=O)n2C` [Compound P17, 6-ethylsulfonyl-1-methyl-3-(methylsulfanylmethyl)-5-[3-methyl-6-(trifluoromethyl)imidazo[4,5-b]pyridine-2-yl]benzimidazol-2-one] registered a mortality at 200 ppm in assay [1] of no less than 80%. Besides, the percent effect (mortality or growth inhibition) at 200 ppm in assay [2] was no less than 80%. For the same compound, the mortality at 24 ppm in assay [3] was no less than 80%.
In the case of `CCS(=O)(=O)c1cc2c(cc1-c1nc3cc(C(F)(F)F)cnc3n1C)n(CC(F)(F)F)c(=O)n2C` [Compound P19, 6-ethylsulfonyl-1-methyl-5-[3-methyl-6-(trifluoromethyl)imidazo[4,5-b]pyridine-2-yl]-3-(2,2,2-trifluoroethyl) benzimidazol-2-one], the mortality at 200 ppm in assay [1] was no less than 80%. The percent effect (mortality or growth inhibition) at 200 ppm in assay [5] and in assay [2] was no less than 80% in each case. Besides, the percent control (mortality, anti-feedant effect or growth inhibition) at 200 ppm in assay [6] was no less than 80%. Also, the mortality at 24 ppm in assay [3] is no less than 80%.
In the case of `CCS(=O)(=O)c1cc2c(cc1-c1nc3cc(C(F)(F)F)cnc3n1C)n(C(=O)C1CC1)c(=O)n2C` [Compound P20, 1-(cyclopropanecarbonyl)-5-ethylsulfonyl-3-methyl-6-[3-methyl-6-(trifluoromethyl)imidazo[4,5-b]pyridine-2-yl]benzimidazol-2-one], the mortality at 200 ppm in assay [1] is no less than 80%.
As to `CCOC(=O)n1c(=O)n(C)c2cc(S(=O)(=O)CC)c(-c3nc4cc(C(F)(F)F)cnc4n3C)cc21` [Compound P23, ethyl 5-ethylsulfonyl-3-methyl-6-[3-methyl-6-(trifluoromethyl)imidazo[4,5-b]pyridine-2-yl]-2-oxo-benzimidazole-1-carboxylate], the mortality at 200 ppm in assay [1] is no less than 80%. In addition, the percent effect (mortality or growth inhibition) at 200 ppm in assay [5] was no less than 80%. The same compound came in with a mortality at 24 ppm in assay [3] of no less than 80%.
`CCSc1cc2c(nc1-c1nc3cc(C(F)(F)F)cnc3n1C)n(C)c(=O)n2C` [Compound P24, 6-ethylsulfanyl-1,3-dimethyl-5-[3-methyl-6-(trifluoromethyl)imidazo[4,5-b]pyridine-2-yl]imidazo[4,5-b]pyridine-2-one]: the percent effect (mortality or growth inhibition) at 200 ppm in assay [5] was no less than 80%.
Take `CCS(=O)(=O)c1cc2c(cc1-c1nc3cc(S(=O)(=O)C(F)(F)F)ccc3o1)n(C)c(=O)n2C` [Compound P25, 5-ethylsulfonyl-1,3-dimethyl-6-[5-(trifluoromethylsulfonyl)-1,3-benzoxazol-2-yl]benzimidazol-2-one]: the percent effect (mortality or growth inhibition) at 200 ppm in assay [7], in assay [5] and in assay [2] was no less than 80% throughout. Also, in assay [6], the percent control (mortality, anti-feedant effect or growth inhibition) at 200 ppm was no less than 80%.
With `CCS(=O)(=O)c1cc2c(nc1-c1nc3cc(S(=O)(=O)C(F)(F)F)ccc3o1)n(C)c(=O)n2C` [Compound P26, 6-ethylsulfonyl-1,3-dimethyl-5-[5-(trifluoromethylsulfonyl)-1,3-benzoxazol-2-yl]imidazo[4,5-b]pyridine-2-one], the percent effect (mortality or growth inhibition) at 200 ppm in assay [7] and in assay [5] was no less than 80% throughout. Besides, the percent control (mortality, anti-feedant effect or growth inhibition) at 200 ppm in assay [6] is no less than 80%.
On to `CCS(=O)(=O)c1cc2c(cc1-c1nc3cc(SC(F)(F)F)ccc3o1)n(C)c(=O)n2C` [Compound P29, 5-ethylsulfonyl-1,3-dimethyl-6-[5-(trifluoromethylsulfanyl)-1,3-benzoxazol-2-yl]benzimidazol-2-one], for which the percent effect (mortality or growth inhibition) at 200 ppm in assay [7], in assay [5] and in assay [2] was no less than 80% each time. The percent control (mortality, anti-feedant effect or growth inhibition) at 200 ppm in assay [6] was no less than 80%.
For `CCS(=O)(=O)c1cc2c(nc1-c1nc3cc(SC(F)(F)F)ccc3o1)n(C)c(=O)n2C` [Compound P35, 6-ethylsulfonyl-1,3-dimethyl-5-[5-(trifluoromethylsulfanyl)-1,3-benzoxazol-2-yl]imidazo[4,5-b]pyridin-2-one], the percent effect (mortality or growth inhibition) at 200 ppm in assay [7] and in assay [5] was no less than 80% throughout. In assay [6], the percent control (mortality, anti-feedant effect or growth inhibition) at 200 ppm is no less than 80%.
Regarding `CCS(=O)(=O)c1cc2c(cc1-c1nc3cc(S(=O)(=O)C(F)(F)F)ccc3n1C)n(C)c(=O)n2C` [Compound P37, 5-ethylsulfonyl-1,3-dimethyl-6-[1-methyl-5-(trifluoromethyl-sulfonyl)benzimidazol-2-yl]benzimidazol-2-one], the percent effect (mortality or growth inhibition) at 200 ppm in assay [7] and in assay [2] was no less than 80% in each case. In assay [1], this compound yielded a mortality at 200 ppm of no less than 80%.
As to `CCS(=O)(=O)c1cc2c(cc1-c1nc3cc(C(F)(F)F)ccc3o1)n(C)c(=O)n2C` [Compound P40, 5-ethylsulfonyl-1,3-dimethyl-6-[5-(trifluoromethyl)-1,3-benzoxazol-2-yl]benzimidazol-2-one], in assay [7], the percent effect (mortality or growth inhibition) at 200 ppm was no less than 80%.
As to `CCSc1cc2c(cc1-c1nc3cc(SC(F)(F)F)ccc3n1C)n(C)c(=O)n2C` [Compound P42, 5-ethylsulfanyl-1,3-dimethyl-6-[1-methyl-5-(trifluoromethyl-sulfanyl)benzimidazol-2-yl]benzimidazol-2-one], the percent effect (mortality or growth inhibition) at 200 ppm in assay [7] and in assay [2] was no less than 80% throughout.
With `CCS(=O)(=O)c1cc2c(nc1-c1nc3cc([S+]([O-])C(F)(F)F)ccc3n1C)n(C)c(=O)n2C` (stereo not drawn) [Compound P43, 6-ethylsulfonyl-1,3-dimethyl-5-[1-methyl-5-(trifluoromethyl-sulfinyl)benzimidazol-2-yl]imidazo[4,5-b]pyridin-2-one], the percent effect (mortality or growth inhibition) at 200 ppm in assay [7] and in assay [2] was no less than 80% each time. This compound also came in with a mortality at 200 ppm in assay [1] of no less than 80%. In assay [3], this compound displayed a mortality at 24 ppm of no less than 80%.
Regarding `CCS(=O)(=O)c1cc2c(cc1-c1nc3cc([S+]([O-])C(F)(F)F)ccc3n1C)n(C)c(=O)n2C` (stereo not drawn) [Compound P44, 5-ethylsulfonyl-1,3-dimethyl-6-[1-methyl-5-(trifluoromethyl-sulfinyl)benzimidazol-2-yl]benzimidazol-2-one], the percent effect (mortality or growth inhibition) at 200 ppm in assay [7] and in assay [2] was no less than 80% each time. For the same compound, the mortality at 200 ppm in assay [1] was no less than 80%. Also, in assay [3], the mortality at 24 ppm was no less than 80%.

What is called mortality is the share of the test organisms that died.

The values are drawn from patent US11399542B2, “Pesticidally active heterocyclic derivatives with sulfur containing substituents” (SYNGENTA PARTICIPATIONS AG, priority 2017, dated 2022).
